The results in this text go back to patent US10155927B2, “Method for differentiation of pluripotent stem cells into cardiomyocytes” (Hoffmann-La Roche Inc., priority 2014, dated 2018).

Series [1] relates to human embryonic stem cells (hESC) and induced pluripotent stem cells (iPSC). The series is described as follows: Differentiation of pluripotent stem cells (hESC or iPSC) into cardiomyocytes. More on the design: key to Amount of cardiomyocytes obtained: (−) No cardiomyocytes obtained; (+)—(+++): Amount of cardiomyocytes obtained; (+)—(+++): Amount of cardiomyocytes obtained; (+)—(+++): Amount of cardiomyocytes obtained. Type of series: cell-based. The note with it: for Ability to induce cardiomyocyte differentiation: other Wnt inhibitors tested instead of Wnt-C59; for Amount of cardiomyocytes obtained: Experiments I-III. The procedure: (§1) To initialize differentiation, the cells are incubated in insulin-free medium comprising compound 21 (3-(3-Amino-phenyl)-4-(1-methyl-1H-indol-3-yl)-pyrrole-2,5-dione, also referred to as “compound 21” or “CP21” herein; see e.g., Gong et al. (2010) Bioorganic& Medicinal Chemistry Letters 20:1693-1696) to activate the wnt-pathway. The optimal concentration of compound 21 to induce cardiomyocyte differentiation is dependent on the cell density of the pluripotent cells that are attached to the cell vessel. […] This is surprising as prior art protocols require higher concentrations of other modulators of the Wnt pathway for efficient differentiation.
(§2) The optimal concentration was identified at 2 μM. […] In one embodiment, step c) of the differentiation method comprises incubating the cells in a medium comprising 1-10 μM Wnt-C59. In one preferred embodiment step c) of the differentiation method comprises incubating the cells in a medium comprising 2 μM Wnt-C59.
Anthelmintic niclosamide and Pyrvinium were tested for their ability to induce cardiomyocyte differentiation.
Human embryonic stem cells (hESC) or induced pluripotent stem cells (iPSC) were cultured in 56 cm^2 dishes coated with Matrigel (BD Bioscience, Cat. 354277) at 37° C. and 5% CO2 in 10 ml mTeSR1 medium (Stemcell Technologies, Cat. 05850).
To propagate pluripotent stem cells by conserving their pluripotent state, hESC or iPSC were treated with the following: the cells were washed once with 10 ml PBS−/−, and afterwards incubated with 3 ml Accutase (Innovative Cell Technologies, Cat. AT-104) for 2-3 minutes at 37° C. and 5% CO2, to detach the cells.
The enzymatic reaction of Accutase was stopped with 7 ml mTeSR1 and followed by centrifugation of the cells for 3 minutes at 500×g.
The cells were resuspended in 10 ml mTeSR1, and counted. For further cultivation, 2×10^6 cells were plate on 56 cm^2 dishes with fresh coated Matrigel. Further the hESC or iPSC were cultivated in 10 ml mTeSR1 and 10 μM Rock inhibitor, Y-27632 (Millipore, Cat. SCM075) at 37° C. and 5% CO2. Subsequently, 10 ml mTeSR1 medium was changed daily and the pluripotent stem cells were cultivated to a density of 80% before passaging.
For successful differentiation into cardiomyocytes, pluripotent stem cells were plated at high density using 5.5×10^5/cm^2 of hESC or iPSC. Passaging and cultivation were performed as described above for pluripotent stem cells.
After 24 hours (day 1) the hESC or iPSC were washed once with 180 μl/cm^2 PBS−/− and the cultivation medium was changed to 180 μl/cm^2 differentiation medium.
After 24 hours (day 2) incubation with CP21, the cells were washed with PBS−/− as described above and cultivated for 48 hours in 220 μl/cm^2 differentiation medium.
After 48 hours (day 4), the cells were washed with PBS−/− as described above and cultivated for 48 hours in 220 μl/cm^2 differentiation medium comprising 2 μM Wnt-C59 (Cellagen Technology, Cat. C7641-2s, International Patent Application Publication No. WO 20101 01849), a potent Wnt signaling inhibitor, by blocking Wnt secretion.
After 48 hours (day 6), the cells were washed with PBS−/− as described above and cultivated for 48 hours in 220 μl/cm^2 differentiation medium.
After 48 hours (day 8), the cells were washed with PBS−/− as described above and cultivated for 48 hours in 220 μl/cm^2 RPMI medium comprising ascorbic acid, penicillin-streptomycin, but now including B27 plus insulin, minus vitamin A (=expansion medium)
Subsequent medium changes were performed every 48 hours using 220 μl/cm^2 expansion medium.
To test the efficiency of the differentiation process, the cardiomyocytes were characterized at differentiation day 14 by cell immunohistochemistry and Fluorescence Activated Cell Sorting (FACS) using antigens specific to cardiomyocytes.
The protocol as described above was repeated with different CP21 concentrations. The results are shown in Table 1 below: (−) No cardiomyocytes obtained, (+)—(+++): Amount of cardiomyocytes obtained.

Series [2] has as its system pluripotent cells (hESC or iPSC). Kind of series: Cell viability / cell death during the differentiation protocol. The class given is cell-based. The procedure: as §1, §2
For series [3], the system named is pluripotent stem cell derived cardiomyocytes. Kind of series: xCELLigence cardiomyocyte beating analysis. The class given is cell-based, human. The procedure:
Isoproterenol increases the heart rate and myocardial contractility by stimulating cardiac beta-1 receptors. To detect this proarrhythmic effect in the stem cell derived cardiomyocytes, 7×10^4/cm^2 cells were plated on special E-Plate Cardio 96 (Roche, Cat. No. 05232368001) coated with 130 μl/cm^2 0.1% Gelatine for 1 hour at 37° C. After cells attached to the plate and recovered for 2 days as described above, medium was changed to iCell Cardiomyocytes Maintenance Medium (Cellular Dynamics, Cat. No.CMM-100-120-005). Cells were measured using the xCELLigence RTCA Cardio System (Roche Applied Science). 7 days after plating the cells were treated with 3 μM Isoproterenol and measured directly. Each 96-well plate was measured at a resolution of 12.9 ms. The first 3 minutes were measured without interruption and over the next 24 hours the cells were measured every 15 minutes for 1 minute duration. Activation of β-receptors on the heart induces positive chronotropic effects in cardiomyocytes. To confirm that the pluripotent stem cell derived cardiomyocytes respond to β-receptor activation, the cardiomyocytes were incubated with the β-receptor agonist isoproterenol and subsequently analysed using the xCELLigence system.

As to `O=C(Nc1ccc([N+](=O)[O-])cc1Cl)c1cc(Cl)ccc1O` [Anthelmintic niclosamide, niclosamide], the “Ability to induce cardiomyocyte differentiation” value in series [1] is given as “did not result in a successful generation of cardiomyocytes”.
As to `Cn1cc(C2=C(c3cccc(N)c3)C(=O)NC2=O)c2ccccc21` [CP21, 3-(3-Amino-phenyl)-4-(1-methyl-1H-indol-3-yl)-pyrrole-2,5-dione], the “Cell death after incubation” value in series [2] (After 24 h CP21 incubation) is “strong cell death”. Moreover, the “Concentrations showing decreased cell viability” value in series [2] (step b) of differentiation) is “above 5 μM”. Moreover, the “Amount of cardiomyocytes obtained” value in series [1] (Cp21 conc. 0.3 μM) was “−”; in series [1] (Cp21 conc. 1 μM), “+”; in series [1] (Cp21 conc. 2 μM), “++ and +++”; in series [1] (Cp21 conc. 3 μM) it was “++ and +”; in series [1] (Cp21 conc. 5 μM), “+ and −”; in series [1] (Cp21 conc. 10 μM) it was “−”. Further, the “Concentration resulting in the most efficient differentiation of pluripotent stem cells into cardiomyocytes” value in series [1] (cell density 5.5×10^5/cm^2, tested 0-10 μM at 1.8-11×10^5/cm2 hESC or iPSC) turned out to be 2 µM. Further, the “Incubation time optimal for cardiogenesis” value in series [1] (various incubation times tested, longer or shorter less efficient) came out at 24 h.
With `Cc1cc(/C=C/c2ccc3cc(N(C)C)ccc3[n+]2C)c(C)n1-c1ccccc1` [Pyrvinium], the “Ability to induce cardiomyocyte differentiation” value in series [1] is given as “did not result in a successful generation of cardiomyocytes”.
Take `Cc1cc(-c2ccc(CC(=O)Nc3ccc(-c4cccnc4)cc3)cc2)ccn1` [Wnt-C59, 2-(4-(2-methylpyridin-4-yl)phenyl)-N-(4-(pyridin-3-yl)phenyl)acetamide]: the “Concentrations showing increased cell death” value in series [2] (step c) of differentiation) is “more than 5 μM”. For the same molecule, the “Optimal concentration for cardiomyocyte differentiation” value in series [1] (Wnt repressor in step c), tested 1-10 μM) came to 2 µM. Further, the “Effect on cardiomyocytes obtained” value in series [1] (Wnt-C59 1-10 μM, step c)) is reported as “significant increase in cardiomyocytes”.
The molecule `CC(C)NCC(O)c1ccc(O)c(O)c1` (centres unmarked) [isoproterenol] yielded a Beating rate in series [3] (3 μM isoproterenol, untreated control 45 beats per minute) of 60 beats per minute. Further, the “Effect on beating frequency” value in series [3] (FIG. 5, xCELLigent analysis) is on record as “increases beating frequency”.
